Measured values published in PubChem BioAssay AID602160 (Broad Institute, 2011).
Results filed as inconclusive are left out.

Biological target: Plasmodium falciparum Hsp90 (expressed in yeast GR reporter strain)
Experiment: GR-driven beta-gal reporter inhibition, PfHsp90 yeast strain – S. cerevisiae, beta-gal luminescence, dry powder samples, dose response (AID 602160)

| SMILES | AC50 |
| --- | --- |
| Cc1ccc(OCc2n[nH]c(=S)n2C2CCCCC2)cc1 | 20.2 µM |
| O=S(=O)(NC1CCCCCC1)c1ccc(Br)s1 | 10.7 µM |
| O=C(CSCC(=O)N1CCCCC1)Nc1nc(-c2ccc(Cl)s2)cs1 | 19.6 µM |
| O=S(=O)(/C=C/c1ccccc1)NC1CCCCCCC1 | 15.1 µM |
